Reference: the supplement of paper PMC10307832

Assays:
Assay in all cases: relative viability (nuclei count vs DMSO), 5 days (fraction); higher = more cells survive
Nelarabine + Tozasertib = compound: COc1nc(N)nc2c1ncn2[C@@H]1O[C@H](CO)[C@@H](O)[C@@H]1O [Nelarabine] + Cc1cc(Nc2cc(N3CCN(C)CC3)nc(Sc3ccc(NC(=O)C4CC4)cc3)n2)n[nH]1 [Tozasertib] (partner 0.1 µM)
Outline: (§1)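 After 5 days of treatment, lung cancer cells in 1536-well plates were fixed and stained in a single step (final 0.05% Triton X-100, 1% formaldehyde, 1 ug/ml Hoechst) and their nuclei counted on 4× images. Treatment had been applied by pin tool the day after seeding as one drug alone or as a fixed anchor-drug dose with five library-drug doses (not always all listed) in √10 steps. Relative viability is the nuclei count of treated wells divided by that of vehicle wells, and values are medians of duplicate plates.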

Nelarabine + Foretinib = compound: COc1nc(N)nc2c1ncn2[C@@H]1O[C@H](CO)[C@@H](O)[C@@H]1O [Nelarabine] + COc1cc2c(Oc3ccc(NC(=O)C4(C(=O)Nc5ccc(F)cc5)CC4)cc3F)ccnc2cc1OCCCN1CCOCC1 [Foretinib] (partner 0.25 µM)
Outline: as §1

Nelarabine + Pemetrexed = compound: COc1nc(N)nc2c1ncn2[C@@H]1O[C@H](CO)[C@@H](O)[C@@H]1O [Nelarabine] + Nc1nc2[nH]cc(CCc3ccc(C(=O)N[C@@H](CCC(=O)O)C(=O)O)cc3)c2c(=O)[nH]1 [Pemetrexed] (partner 0.2 µM)
Outline: as §1

Adavosertib + Pemetrexed = compound: C=CCn1c(=O)c2cnc(Nc3ccc(N4CCN(C)CC4)cc3)nc2n1-c1cccc(C(C)(C)O)n1 [Adavosertib] + Nc1nc2[nH]cc(CCc3ccc(C(=O)N[C@@H](CCC(=O)O)C(=O)O)cc3)c2c(=O)[nH]1 [Pemetrexed] (partner 0.2 µM)
Outline: as §1

| Cell Line | relative viability (Nelarabine + Tozasertib; first compound 0.01 µM) | relative viability (Nelarabine + Tozasertib; first compound 0.03162 µM) | relative viability (Nelarabine + Tozasertib; first compound 0.1 µM) | relative viability (Nelarabine + Tozasertib; first compound 0.3162 µM) | relative viability (Nelarabine + Tozasertib; first compound 1 µM) | relative viability (Nelarabine + Foretinib; first compound 0.01 µM) | relative viability (Nelarabine + Foretinib; first compound 0.03162 µM) | relative viability (Nelarabine + Foretinib; first compound 0.1 µM) | relative viability (Nelarabine + Foretinib; first compound 0.3162 µM) | relative viability (Nelarabine + Foretinib; first compound 1 µM) | relative viability (Nelarabine + Pemetrexed; first compound 0.01 µM) | relative viability (Nelarabine + Pemetrexed; first compound 0.03162 µM) | relative viability (Nelarabine + Pemetrexed; first compound 0.1 µM) | relative viability (Nelarabine + Pemetrexed; first compound 0.3162 µM) | relative viability (Nelarabine + Pemetrexed; first compound 1 µM) | relative viability (Adavosertib + Pemetrexed; first compound 0.01 µM) | relative viability (Adavosertib + Pemetrexed; first compound 0.03162 µM) | relative viability (Adavosertib + Pemetrexed; first compound 0.1 µM) | relative viability (Adavosertib + Pemetrexed; first compound 0.3162 µM) |
| --- | --- | --- | --- | --- | --- | --- | --- | --- | --- | --- | --- | --- | --- | --- | --- | --- | --- | --- | --- |
| NCI-H1623 | 0.46 | 0.341 | 0.601 | 0.45 | 0.406 | 0.971 | 0.818 | 0.879 | 0.757 | 0.834 | – | – | – | – | – | – | – | – | – |
| HARA | 0.119 | 0.112 | 0.0991 | 0.0991 | 0.105 | 1 | 1.07 | 0.834 | 1.23 | 1.03 | 0.233 | 0.28 | 0.225 | 0.288 | 0.226 | 0.244 | 0.22 | 0.229 | 0.191 |
| NCI-H2126 | 0.968 | 0.864 | 0.779 | 0.809 | 0.824 | 1.24 | 1.13 | 1.18 | 1.41 | 1.08 | 0.879 | 0.757 | 0.692 | 0.765 | 0.807 | 0.615 | 0.66 | 0.695 | 0.643 |
| NCI-H1703 | – | – | – | – | – | 0.388 | 0.405 | 0.332 | 0.289 | 0.395 | – | – | – | – | – | – | – | – | – |
| UMC-11 | 0.185 | 0.204 | 0.378 | 0.206 | 0.204 | 1.23 | 0.961 | 0.963 | 1.11 | 0.972 | 0.992 | 0.696 | 0.94 | 0.816 | 0.884 | 0.791 | 0.725 | 0.763 | 0.594 |
| PC-14 | 0.625 | 0.645 | 0.597 | 0.599 | 0.631 | 1.04 | 1.11 | 1.06 | 1.02 | 0.997 | 0.136 | 0.138 | 0.125 | 0.142 | 0.158 | 0.151 | 0.121 | 0.115 | 0.0767 |
| NCI-H1792 | – | – | – | – | – | – | – | – | – | – | 1.09 | 0.658 | 1.58 | 0.937 | 0.824 | 0.858 | 0.756 | 0.718 | 0.71 |
| NCI-H1651 | 0.944 | 0.767 | 0.689 | 0.674 | 0.685 | 1.12 | 0.782 | 0.948 | 0.718 | 0.912 | 0.406 | 0.548 | 0.63 | 0.643 | 0.564 | 0.564 | 0.574 | 0.628 | 0.408 |
| HCC-15 | 0.48 | 0.268 | 0.377 | 0.412 | 0.39 | 1.16 | 0.996 | 0.983 | 1.12 | 0.992 | 0.233 | 0.242 | 0.218 | 0.212 | 0.217 | 0.221 | 0.227 | 0.216 | 0.229 |
| NCI-H2170 | 0.81 | 0.689 | 0.767 | 0.88 | 0.73 | 1.21 | 0.974 | 0.934 | 1.02 | 1.07 | 0.269 | 0.262 | 0.228 | 0.318 | 0.303 | 0.282 | 0.248 | 0.271 | 0.218 |
| SW 1573 | 0.167 | 0.199 | 0.134 | 0.23 | 0.162 | 0.889 | 1.09 | 0.882 | 0.952 | 0.86 | 0.957 | 0.908 | 1.01 | 0.838 | 0.877 | 0.871 | 0.747 | 0.912 | 0.557 |
| IA-LM | – | – | – | – | – | 1.37 | 1.01 | 1.23 | 1.18 | 1.27 | – | – | – | – | – | – | – | – | – |
| ABC-1 | 0.233 | 0.149 | 0.162 | 0.146 | 0.175 | 1.11 | 0.862 | 0.931 | 1.05 | 0.94 | – | – | – | – | – | – | – | – | – |
| NCI-H1563 | – | – | – | – | – | 0.809 | 0.967 | 0.811 | 0.955 | 0.905 | 0.765 | 0.811 | 0.77 | 0.812 | 0.787 | 0.677 | 0.903 | 0.713 | 0.808 |
| Calu-6 | – | – | – | – | – | 1.01 | 0.826 | 0.9 | 0.959 | 0.928 | – | – | – | – | – | – | – | – | – |
| NCI-H1648 | 0.456 | 0.405 | 0.43 | 0.601 | 0.383 | – | – | – | – | – | – | 0.805 | – | 0.885 | 0.75 | 0.595 | 0.719 | 0.814 | 0.483 |
| EBC-1 | – | – | – | – | – | 0.122 | 0.111 | 0.146 | 0.0922 | 0.105 | – | – | – | – | – | – | – | – | – |
| A549 | – | – | – | – | – | 1.11 | 0.853 | 0.972 | 1.01 | 0.98 | – | – | – | – | – | – | – | – | – |
| HCC-44 | 1.27 | 1.25 | 1 | 1.11 | 0.867 | – | – | – | – | – | 0.642 | 0.662 | 0.646 | 0.69 | 0.633 | 0.677 | 0.602 | 0.574 | 0.433 |
| NCI-H727 | 0.789 | 0.816 | 0.617 | 0.598 | 0.694 | 0.881 | 0.97 | 0.912 | 0.772 | 0.945 | – | – | – | – | – | – | – | – | – |
| NCI-H1299 | – | – | – | – | – | 1.15 | 1.08 | 1.13 | 1.12 | 1.13 | – | – | – | – | – | – | – | – | – |
| NCI-H522 | 0.529 | 0.605 | 0.456 | 0.615 | 0.627 | – | – | – | – | – | 1.1 | 0.923 | 1.03 | 0.999 | 1.11 | 1.02 | 1.03 | 1.04 | 0.949 |
